The values that follow come from paper PMC11686366 (Nature Communications, 2024).

The structures appear in SMILES notation.

Data set [1] has as its system thiamine transporters (SLC19A2 and SLC19A3). It is filed as cell-based, human.
Another data set concerns the target T1, human SLC19A3 (Homo sapiens, UniProt Q9BZV2).
T1 sequence (Q9BZV2 1-496): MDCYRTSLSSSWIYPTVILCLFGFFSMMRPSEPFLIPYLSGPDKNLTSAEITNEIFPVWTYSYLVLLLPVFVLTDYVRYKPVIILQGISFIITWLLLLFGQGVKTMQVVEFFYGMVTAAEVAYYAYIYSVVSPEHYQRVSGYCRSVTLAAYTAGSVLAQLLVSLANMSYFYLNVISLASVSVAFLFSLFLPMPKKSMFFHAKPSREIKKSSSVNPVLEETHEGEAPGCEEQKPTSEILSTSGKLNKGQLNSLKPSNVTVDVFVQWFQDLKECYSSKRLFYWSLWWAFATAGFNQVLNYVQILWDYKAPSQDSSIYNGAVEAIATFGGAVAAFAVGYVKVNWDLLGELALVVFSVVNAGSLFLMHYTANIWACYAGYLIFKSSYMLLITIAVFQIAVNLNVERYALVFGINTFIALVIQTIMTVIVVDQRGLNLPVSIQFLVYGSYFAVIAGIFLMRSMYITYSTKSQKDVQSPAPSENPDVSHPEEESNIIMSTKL
Put plainly: Microscale thermophoresis. It is filed as binding. Conditions: for Kd: MST.

For data set [2] the following is noted: pyridoxine, bipolar molecule; cited from earlier work.
In another data set the target is T2, human SLC19A2 (Homo sapiens, UniProt O60779).
T2 sequence (O60779 1-497): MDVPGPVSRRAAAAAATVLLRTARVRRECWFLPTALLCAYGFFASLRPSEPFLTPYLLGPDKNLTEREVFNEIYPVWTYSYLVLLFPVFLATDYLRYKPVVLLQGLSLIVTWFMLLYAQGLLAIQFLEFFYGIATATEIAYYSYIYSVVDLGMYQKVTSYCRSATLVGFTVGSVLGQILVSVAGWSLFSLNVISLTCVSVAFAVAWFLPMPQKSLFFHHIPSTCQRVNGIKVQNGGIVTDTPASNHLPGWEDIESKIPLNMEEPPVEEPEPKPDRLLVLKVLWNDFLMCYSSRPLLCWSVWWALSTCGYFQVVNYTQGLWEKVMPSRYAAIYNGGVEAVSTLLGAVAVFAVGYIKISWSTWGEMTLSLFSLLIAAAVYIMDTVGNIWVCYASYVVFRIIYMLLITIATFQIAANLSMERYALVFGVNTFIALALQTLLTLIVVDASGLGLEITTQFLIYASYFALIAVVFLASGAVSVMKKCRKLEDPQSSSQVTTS
The experiment in a line: Microscale thermophoresis. Type of data set: binding. Conditions: MST.

As for `CCN1CCN(Cc2ccc(Nc3ncc(F)c(-c4cc(F)c5nc(C)n(C(C)C)c5c4)n3)nc2)CC1` [abemaciclib], the “Inhibition of 3H-thiamine uptake (in words)” value (“Inhibition” for short) in data set [1] is “inhibitor”.

With `CCCc1ncc(C[n+]2ccccc2C)c(N)n1` [amprolium], at human SLC19A3 (pH 6.0), the Kd was approximately 0.45 µM. Further, the “Inhibition” value in data set [1] is reported as “inhibitory effects”.

With `Cc1cc(C#N)cc(C)c1Oc1nc(Nc2ccc(C#N)cc2)nc(N)c1Br` [etravirine], the “Inhibition” value in data set [1] is listed as “inhibitor”.

Regarding `Cc1cnc(Nc2ccc(OCCN3CCCC3)cc2)nc1Nc1cccc(S(=O)(=O)NC(C)(C)C)c1` [fedratinib], the “Inhibition” value in data set [1] is on record as “inhibitory effects”.

Turning to `CN(C)C(=N)N=C(N)N` [metformin], the “Affinity (in words)” value on human SLC19A3 (Supplementary Fig. 12 / 11b) is on record as “millimolar affinity”. Moreover, in data set [1], the “Inhibition” value was “inhibitory effects”.

As to `N#CCNC(=O)c1ccc(-c2ccnc(Nc3ccc(N4CCOCC4)cc3)n2)cc1` [momelotinib], the “Inhibition” value in data set [1] is reported as “inhibitory effects”.

Consider `Cc1ncc(C[n+]2csc(CCO)c2C)c(=O)[nH]1` [oxythiamine], for which, in data set [1], the “Inhibition” value is listed as “inhibitory effects”.

On to `Cc1ncc(CO)c(CO)c1O` [pyridoxine], for which the “pKa (lower value)” value in data set [2] was 5.6.

On to `CCc1nc(N)nc(N)c1-c1ccc(Cl)cc1` [pyrimethamine], for which the “Inhibition” value in data set [1] was “inhibitory effects”.

`Cc1ncc(C[n+]2csc(CCO)c2C)c(N)n1` [thiamine]: the Kd was approximately 1.2 µM on human SLC19A2 (pH 6.0), approximately 78.4 µM on human SLC19A2 (pH 7.5), approximately 0.25 µM on human SLC19A3 (pH 6.0) and approximately 154 µM on human SLC19A3 (pH 7.5).

In the case of `COc1cc(Cc2cnc(N)nc2N)cc(OC)c1OC` [trimethoprium], the “Inhibition” value in data set [1] is reported as “inhibitory effects”.
